Experimental data from ChEMBL document CHEMBL1212760, “First isolation of the blaOXA-23 carbapenemase gene from an environmental Acinetobacter baumannii isolate” (2010).
Values after ≈ are worked out from the molar mass of the structure shown.

These molecules were tested on Acinetobacter baumannii (assay: Antimicrobial activity against Acinetobacter baumannii B9 containing carbapenemase blaOXA-23 gene assessed as growth inhibition by Etest method).
Format: functional

Row | Molecule | MIC [µg/mL]
1 | CCn1cc(C(=O)O)c(=O)c2cc(F)c(N3CCN(C)CC3)cc21 [PEFLOXACIN] | > 256
2 | C[C@H]1[C@H](NC(=O)/C(=N\OC(C)(C)C(=O)O)c2csc(N)n2)C(=O)N1S(=O)(=O)O [AZTREONAM] | 32 (≈ 73.5 µM)
3 | CO/N=C(\C(=O)N[C@@H]1C(=O)N2C(C(=O)[O-])=C(C[n+]3cccc4c3CCC4)CS[C@H]12)c1csc(N)n1 [CEFPIROME] | > 256
4 | CCN[C@@H]1C[C@H](N)[C@@H](O[C@H]2OC(CN)=CC[C@H]2N)[C@H](O)[C@H]1O[C@H]1OC[C@](C)(O)[C@H](NC)[C@H]1O [NETILMICIN] | 8 (≈ 16.8 µM)
5 | CCn1cc(C(=O)O)c(=O)c2ccc(C)nc21 [NALIDIXIC ACID] | > 256
6 | CO/N=C(\C(=O)N[C@@H]1C(=O)N2C(C(=O)O)=C(COC(C)=O)CS[C@H]12)c1csc(N)n1 [CEFOTAXIME] | > 256
7 | NCC[C@H](O)C(=O)N[C@@H]1C[C@H](N)[C@@H](O[C@H]2O[C@H](CN)[C@@H](O)[C@H](O)[C@H]2O)[C@H](O)[C@H]1O[C@H]1O[C@H](CO)[C@@H](O)[C@H](N)[C@H]1O [AMIKACIN] | 8 (≈ 13.7 µM)
8 | CO[C@@]1(NC(=O)C(C(=O)O)c2ccc(O)cc2)C(=O)N2C(C(=O)O)=C(CSc3nnnn3C)CO[C@@H]21 (stereo partly specified) [MOXALACTAM] | > 256
9 | CC1(C)S[C@@H]2[C@H](NC(=O)[C@H](C(=O)O)c3ccsc3)C(=O)N2[C@H]1C(=O)O [TICARCILLIN] | > 256
10 | CO/N=C(\C(=O)N[C@@H]1C(=O)N2C(C(=O)O)=C(COC(N)=O)CS[C@H]12)c1ccco1 [CEFUROXIME] | > 256
11 | C[C@@H](O)[C@H]1C(=O)N2C(C(=O)O)=C(S[C@@H]3CN[C@H](C(=O)Nc4cccc(C(=O)O)c4)C3)[C@H](C)[C@H]12 [ERTAPENEM] | > 32
12 | CC1(C)S[C@@H]2[C@H](NC(=O)[C@H](N)c3ccc(O)cc3)C(=O)N2[C@H]1C(=O)O [AMOXICILLIN] | > 256
13 | C[C@@H](O)[C@H]1C(=O)N2C(C(=O)O)=C(S[C@@H]3CN[C@H](C(=O)N(C)C)C3)[C@H](C)[C@H]12 [MEROPENEM] | 24 (≈ 62.6 µM)
14 | CC1COc2c(N3CCN(C)CC3)c(F)cc3c(=O)c(C(=O)O)cn1c23 (stereo unspecified) [OFLOXACIN] | > 32
15 | C[C@@H](O)[C@H]1C(=O)N2C(C(=O)O)=C(SCCNC=N)C[C@H]12 [IMIPENEM ANHYDROUS] | 48 (≈ 160 µM)
16 | O=C(O)c1cn(C2CC2)c2cc(N3CCNCC3)c(F)cc2c1=O [CIPROFLOXACIN] | > 32
17 | CCN1CCN(C(=O)N[C@@H](C(=O)N[C@@H]2C(=O)N3[C@@H]2SC(C)(C)[C@@H]3C(=O)O)c2ccccc2)C(=O)C1=O [PIPERACILLIN] | > 256
18 | CC(=O)OCC1=C(C(=O)O)N2C(=O)[C@@H](NC(=O)Cc3cccs3)[C@H]2SC1 [CEPHALOTHIN] | > 256
19 | CO/N=C(\C(=O)N[C@@H]1C(=O)N2C(C(=O)[O-])=C(C[N+]3(C)CCCC3)CS[C@H]12)c1csc(N)n1 [CEFEPIME] | > 256
20 | CC(C)(O/N=C(\C(=O)N[C@@H]1C(=O)N2C(C(=O)[O-])=C(C[n+]3ccccc3)CS[C@H]12)c1csc(N)n1)C(=O)O [CEFTAZIDIME] | > 256
21 | GENTAMICIN | 8
